Assays:
[1] = system: wheat; test: Test B pre/postemergence wheat; assay type: in vivo, Triticum aestivum
How it was run: (§1)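 Test chemicals in a non-phytotoxic solvent mixture with surfactant were sprayed preemergence onto planted seeds and postemergence onto plants 2 to 18 cm tall (1- to 4-leaf stage). After twelve to sixteen days in a greenhouse, injury was visually rated against untreated controls from 0 (no effect) to 10 (complete control).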

[2] = system: wild oat; test: Test B pre/postemergence wild oat; assay type: in vivo, Avena fatua
How it was run: as §1

[3] = system: pigweed; test: Test B pre/postemergence pigweed; assay type: in vivo, Amaranthus retroflexus
How it was run: as §1

[4] = system: crabgrass; test: Test B pre/postemergence crabgrass; assay type: in vivo, Digitaria sanguinalis
How it was run: as §1

[5] = system: giant foxtail; test: Test B pre/postemergence giant foxtail; assay type: in vivo, Setaria faberii
How it was run: as §1

[6] = system: morningglory; test: Test B pre/postemergence morningglory; assay type: in vivo, Ipomoea hederacea
How it was run: as §1

[7] = system: corn; test: Test B pre/postemergence corn; assay type: in vivo, Zea mays
How it was run: as §1

[8] = system: rice; test: Test B flood test rice; assay type: in vivo, Oryza sativa
How it was run: (§2)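 Each value is a visual injury score relative to controls, with 10 meaning complete control and 0 no effect. Evaluation took place twelve to sixteen days after the 2-leaf-stage plants were treated and kept in the greenhouse.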

[9] = system: soybean; test: Test B pre/postemergence soybean; assay type: in vivo, Glycine max
How it was run: as §1

[10] = system: smallflower flatsedge; test: Test B flood test smallflower flatsedge; assay type: in vivo, Cyperus difformis
How it was run: as §2

[11] = system: duck salad; test: Test B flood test duck salad; assay type: in vivo, Heteranthera limosa
How it was run: as §2

[12] = system: cocklebur; test: Test B pre/postemergence cocklebur; assay type: in vivo, Xanthium strumarium
How it was run: as §1

[13] = system: sugar beet; test: Test B pre/postemergence sugar beet; assay type: in vivo, Beta vulgaris
How it was run: as §1

[14] = system: purple nutsedge; test: Test B pre/postemergence purple nutsedge; assay type: in vivo, Cyperus rotundus
How it was run: as §1

[15] = system: rape; test: Test B pre/postemergence rape; assay type: in vivo, Brassica napus
How it was run: as §1

[16] = system: velvetleaf; test: Test B pre/postemergence velvetleaf; assay type: in vivo, Abutilon theophrasti
How it was run: as §1

[17] = Postemergence, Rate 500 g/ha, scale of 0 to 10 where 0 is no effect and 10 is complete control
[18] = Preemergence, Rate 62 g/ha, scale 0 to 10 (0 no effect, 10 complete control)
[19] = Preemergence, Rate 125 g/ha, scale of 0 to 10 where 0 is no effect and 10 is complete control
[20] = Preemergence, Rate 250 g/ha, scale 0 to 10, 0 is no effect, 10 is complete control
[21] = Preemergence, Rate 500 g/ha, scale 0 to 10, 0 is no effect, 10 is complete control
[22] = Rate 62 g/ha, Postemergence, scale of 0 to 10 where 0 is no effect and 10 is complete control
[23] = Postemergence, Rate 250 g/ha, scale 0 to 10, 0 is no effect, 10 is complete control
[24] = Postemergence, Rate 125 g/ha, scale 0 to 10, 0 is no effect, 10 is complete control
[25] = Rate 62 g/ha, flood test species, Pre-emergence, visual evaluation after twelve to sixteen days
[26] = Rate 125 g/ha, under heading Pre-emergence, flood test species, visual evaluation after twelve to sixteen days
[27] = Rate 250 g/ha, Pre-emergence, flood-test species, scale 0 to 10, 0 is no effect, 10 is complete control
[28] = Rate 500 g/ha, Pre-emergence, flood test species, scale 0 to 10 (0 no effect, 10 complete control)

Cc1nc(Cl)sc1C(C)n1c(=O)on(C(=O)N(c2ccc(F)cc2)C(C)C)c1=O (centres unmarked) [Compound 401]
Wheat plant response rating [1, 17]: 0
Plant response rating, Wheat [1, 18]: 0
Plant response rating, Wheat [1, 19]: 0
Wheat plant response rating [1, 20]: 0
Wheat plant response rating [1, 21]: 0
Wheat plant response rating [1, 22]: 0
Wild oats plant response rating [2, 17]: 0
Plant response rating, Wild oats [2, 18]: 0
Plant response rating, Wild oats [2, 19]: 0
Wild oats plant response rating [2, 20]: 0
Wild oats plant response rating [2, 21]: 0
Wild oats plant response rating [2, 22]: 0
Plant response rating, Redroot pigweed [3, 23]: 1
Redroot pigweed plant response rating [3, 17]: 2
Plant response rating, Redroot pigweed [3, 18]: 0
Plant response rating, Redroot pigweed [3, 19]: 0
Redroot pigweed plant response rating [3, 20]: 0
Redroot pigweed plant response rating [3, 21]: 0
Redroot pigweed plant response rating [3, 22]: 0
Plant response rating, Crabgrass [4, 24]: 0
Plant response rating, Crabgrass [4, 23]: 2
Crabgrass plant response rating [4, 17]: 3
Plant response rating, Crabgrass [4, 18]: 0
Plant response rating, Crabgrass [4, 19]: 2
Crabgrass plant response rating [4, 20]: 8
Crabgrass plant response rating [4, 21]: 10
Crabgrass plant response rating [4, 22]: 0
Plant response rating, Giant foxtail [5, 24]: 0
Plant response rating, Giant foxtail [5, 23]: 2
Giant foxtail plant response rating [5, 17]: 6
Plant response rating, Giant foxtail [5, 18]: 0
Plant response rating, Giant foxtail [5, 19]: 6
Giant foxtail plant response rating [5, 20]: 7
Giant foxtail plant response rating [5, 21]: 8
Giant foxtail plant response rating [5, 22]: 0
Plant response rating, Morningglory [6, 23]: 6
Morningglory plant response rating [6, 17]: 7
Plant response rating, Morningglory [6, 18]: 0
Plant response rating, Morningglory [6, 19]: 0
Morningglory plant response rating [6, 20]: 0
Morningglory plant response rating [6, 21]: 0
Morningglory plant response rating [6, 22]: 3
Plant response rating, Corn [7, 24]: 0
Plant response rating, Corn [7, 23]: 0
Corn plant response rating [7, 17]: 0
Plant response rating, Corn [7, 18]: 0
Plant response rating, Corn [7, 19]: 0
Corn plant response rating [7, 20]: 0
Corn plant response rating [7, 21]: 0
Corn plant response rating [7, 22]: 0
Plant response rating, Rice (0 to 10 scale, 0 is no effect, 10 is complete control) [8, 25]: 0
Rice plant response rating (0 to 10 scale, 0 is no effect, 10 is complete control) [8, 26]: 0
Rice plant response rating [8, 27]: 0
Rice plant response rating [8, 28]: 0
Plant response rating, Soybean [9, 23]: 1
Soybean plant response rating [9, 17]: 1
Plant response rating, Soybean [9, 18]: 0
Plant response rating, Soybean [9, 19]: 0
Soybean plant response rating [9, 20]: 0
Soybean plant response rating [9, 21]: 3
Soybean plant response rating [9, 22]: 0
Plant response rating, S. Flatsedge (0 to 10 scale, 0 is no effect, 10 is complete control) [10, 25]: 0
S. Flatsedge plant response rating (0 to 10 scale, 0 is no effect, 10 is complete control) [10, 26]: 0
S. Flatsedge plant response rating [10, 27]: 0
S. Flatsedge plant response rating [10, 28]: 0
Plant response rating, Ducksalad (0 to 10 scale, 0 is no effect, 10 is complete control) [11, 25]: 0
Ducksalad plant response rating (0 to 10 scale, 0 is no effect, 10 is complete control) [11, 26]: 0
Ducksalad plant response rating [11, 27]: 0
Ducksalad plant response rating [11, 28]: 0
Plant response rating, Cocklebur [12, 24]: 0
Plant response rating, Cocklebur [12, 23]: 0
Cocklebur plant response rating [12, 17]: 1
Plant response rating, Cocklebur [12, 18]: 0
Plant response rating, Cocklebur [12, 19]: 0
Cocklebur plant response rating [12, 20]: 0
Cocklebur plant response rating [12, 21]: 0
Cocklebur plant response rating [12, 22]: 0
Plant response rating, Sugarbeets [13, 23]: 0
Sugarbeets plant response rating [13, 17]: 0
Plant response rating, Sugarbeets [13, 18]: 0
Plant response rating, Sugarbeets [13, 19]: 0
Sugarbeets plant response rating [13, 20]: 0
Sugarbeets plant response rating [13, 21]: 0
Sugarbeets plant response rating [13, 22]: 0
Plant response rating, Nutsedge [14, 23]: 0
Nutsedge plant response rating [14, 17]: 0
Plant response rating, Nutsedge [14, 18]: 0
Plant response rating, Nutsedge [14, 19]: 0
Nutsedge plant response rating [14, 20]: 0
Nutsedge plant response rating [14, 21]: 0
Nutsedge plant response rating [14, 22]: 0
Rape plant response rating [15, 17]: 7
Plant response rating, Rape [15, 18]: 0
Plant response rating, Rape [15, 19]: 0
Rape plant response rating [15, 20]: 0
Rape plant response rating [15, 21]: 0
Rape plant response rating [15, 22]: 0
Plant response rating, Velvetleaf [16, 23]: 0
Velvetleaf plant response rating [16, 17]: 3
Plant response rating, Velvetleaf [16, 18]: 0
Plant response rating, Velvetleaf [16, 19]: 0
Velvetleaf plant response rating [16, 20]: 0
Velvetleaf plant response rating [16, 21]: 0
Velvetleaf plant response rating [16, 22]: 0
